Results as given in ChEMBL document CHEMBL5236595, “JDQ443, a Structurally Novel, Pyrazole-Based, Covalent Inhibitor of KRASG12C for the Treatment of Solid Tumors” (J Med Chem, 2022).

What was measured:
[1] = test system: GTPase KRas (Homo sapiens), P01116 [G12C]; experiment: Displacement of [acrylamide-2,3-3H2]-N-(3-fluoro-4-(2-methyl-3-(5-methyl-1H- indazole-4-yl)-1H-pyrrolo[ 2,3-b]pyridin-1-yl)-phenyl from KRAS G12C mutant (unknown origin) assessed as ratio of Kinact/Ki by competitive scintillation proximity assay
[2] = Cysteine reactivity in pH 7.4 phosphate buffer assessed as compound half life at 2 uM in presence of GSH

Row | Structure (SMILES) | Ratio [1] [mM⁻¹ s⁻¹] | T1/2 [2] [min]
1 | C=CC(=O)N1CC2(CC(n3nc(-c4ccccn4)c(-c4c(Cl)c(C)cc5[nH]ncc45)c3C)C2)C1 | 7 | 
2 | C=CC(=O)N1CC2(CC(n3nc(-c4cccnc4)c(-c4c(Cl)c(C)cc5[nH]ncc45)c3C(F)F)C2)C1 | 3 | 
3 | C=CC(=O)Nc1ccc(-n2nc(C)c(-c3c(C)ccc4[nH]ncc34)c2C)c(F)c1 | 0.5 | 30
